Test [1] has as its target T1, human glucocorticoid receptor (Homo sapiens, UniProt P04150).
T1 construct: purified human recombinant full-length glucocorticoid receptor (2 nM); purchased Invitrogen Part #2893
T1 sequence (P04150 1-777): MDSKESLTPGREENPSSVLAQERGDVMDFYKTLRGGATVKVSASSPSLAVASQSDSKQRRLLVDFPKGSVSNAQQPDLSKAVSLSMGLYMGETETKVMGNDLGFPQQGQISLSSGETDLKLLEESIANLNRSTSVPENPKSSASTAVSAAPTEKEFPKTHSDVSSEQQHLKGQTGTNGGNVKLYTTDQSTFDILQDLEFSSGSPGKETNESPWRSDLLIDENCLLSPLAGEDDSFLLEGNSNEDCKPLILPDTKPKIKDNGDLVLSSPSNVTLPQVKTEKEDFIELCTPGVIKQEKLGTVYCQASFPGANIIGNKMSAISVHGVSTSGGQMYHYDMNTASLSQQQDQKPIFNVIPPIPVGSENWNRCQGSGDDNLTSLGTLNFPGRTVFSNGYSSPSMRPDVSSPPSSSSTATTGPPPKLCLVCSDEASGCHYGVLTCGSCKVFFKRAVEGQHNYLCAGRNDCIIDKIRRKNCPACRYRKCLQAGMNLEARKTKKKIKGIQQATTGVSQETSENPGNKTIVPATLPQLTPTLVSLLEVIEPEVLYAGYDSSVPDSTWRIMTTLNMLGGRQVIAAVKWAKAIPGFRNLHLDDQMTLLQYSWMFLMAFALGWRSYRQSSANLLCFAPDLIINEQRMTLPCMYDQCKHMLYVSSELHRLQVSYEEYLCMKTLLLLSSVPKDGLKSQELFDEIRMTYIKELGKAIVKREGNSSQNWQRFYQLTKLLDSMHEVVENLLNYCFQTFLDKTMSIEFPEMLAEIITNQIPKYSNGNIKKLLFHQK
The test is described as follows: Glucocorticoid Receptor Binding Assay (I), fluorescence polarization competitor kit (Fluormone GS Red). Conditions: purified human recombinant full-length GR 2 nM, 1 nM Fluormone GS Red, FP; read-out: GR (Ki, nM) (GR Binding Assay (I)). On the procedure: Briefly, purified human recombinant full-length glucocorticoid receptor (2 nM) was mixed with fluorescently labeled glucocorticoid (1 nM Fluormone GS Red) in the presence or absence of test compound. After two hour incubation at room temperature in the dark, the fluorescence polarization (FP) of the samples was measured. […] Test compounds were analyzed in the concentration range from 8.5E-05 μM to 5 μM.

Test [2] concerns AP-1 induced transcriptional activity. Put plainly: Cellular Transrepressional Assay (AP-1 luciferase reporter in A549 cells, PMA-activated). Format: cell-based. Conditions: Homo sapiens, A549, 7 h, A549 cells with 7x AP-1 luciferase reporter, 10 ng/ml PMA, read-out: AP-1 (EC50, nM) (Cellular Transrepression Assay). On the procedure:
To measure the ability of test molecules to inhibit AP-1 induced transcriptional activity an A549 cell was utilized which was stably transfected with a plasmid containing 7× AP-1 DNA binding sites (pAP-1-Luc plasmid, Stratagene Co. La Jolla, Calif.) followed by the gene for luciferase. Cells were activated with 10 ng/ml of […] (PMA) plus or minus test molecules for 7 hours. After 7 hours a luciferase reagent was added to measure luciferase enzymatic activity in the cell. After a 10 minute incubation of luciferase reagent with cells, luminescence was measured in a TopCount luminescence counter. Repression of AP-1 activity was calculated as the percentage decrease in the signal induced by PMA alone. Test molecules were analyzed in the concentration range from 0.1 nM to 40 μM. EC50s were determined by using standard curve fitting methods such as Excel fit (Microsoft Co.).

SMILES strings stand for the structures.

Turning to `CC(C)(C(=O)Nc1ncc(Cl)s1)C(c1ccccc1)c1ccc2c(cnn2-c2ccc(F)cc2)c1` (centres unmarked) [Example 26, N-(5-chlorothiazol-2-yl)-3-(1-(4-fluorophenyl)-1H-indazol-5-yl)-2,2-dimethyl-3-phenylpropanamide], the inhibition constant Ki in test [1] worked out at 16 nM. The EC50 in test [2] is 404 nM.
Take `CC(C)(C(=O)Nc1n[nH]cc1C#N)C(c1ccccc1)c1ccc2c(cnn2-c2ccc(F)cc2)c1` (centres unmarked) [Example 16, N-(4-cyano-1H-pyrazol-3-yl)-3-(1-(4-fluorophenyl)-1H-indazol-5-yl)-2,2-dimethyl-3-phenylpropanamide]: the inhibition constant (Ki) in test [1] is 163 nM. For the same compound, in test [2], the EC50 was over 10000 nM.
For `CC(C)(C(=O)Nc1cc(O)[nH]n1)C(c1ccccc1)c1ccc2c(cnn2-c2ccc(F)cc2)c1` (centres unmarked) [Example 15, 3-(1-(4-fluorophenyl)-1H-indazol-5-yl)-N-(5-hydroxy-1H-pyrazol-3-yl)-2,2-dimethyl-3-phenylpropanamide], in that order: 318 nM and over 10000 nM.
On to `CC(C)(C)CNC(=O)C(C)(C)C(c1ccccc1)c1ccc2c(cnn2-c2ccc(F)cc2)c1` (centres unmarked) [Example 7, 3-(1-(4-fluorophenyl)-1H-indazol-5-yl)-2,2-dimethyl-N-neopentyl-3-phenylpropanamide], for which, in test [1], the Ki is 2.9 nM. In test [2], the EC50 worked out at 904 nM.
For the compound `CCC(c1ccc2c(cnn2-c2ccc(F)cc2)c1)C(C)(C)C(=O)Nc1nccs1` (centres unmarked) [Example 39, 3-(1-(4-Fluorophenyl)-1H-indazol-5-yl)-2,2-dimethyl-N-(thiazol-2-yl)pentanamide], the Ki in test [1] stood at 9.8 nM. Also, the EC50 in test [2] is 87 nM.
For `CC(C)(C(=O)Nc1nncs1)C(C)(C)c1ccc2c(cnn2-c2ccc(F)cc2)c1` [Example 120, 3-(1-(4-fluorophenyl)-1H-indazol-5-yl)-2,2,3-trimethyl-N-(1,3,4-thiadiazol-2-yl)butanamide] the same measures were 5.8 nM and 74 nM.
For `CC(C)(C(=O)NCC(F)(F)F)C(c1ccccc1)c1ccc2c(cnn2-c2ccc(F)cc2)c1` (centres unmarked) [Example 8, 3-(1-(4-fluorophenyl)-1H-indazol-5-yl)-2,2-dimethyl-3-phenyl-N-(2,2,2-trifluoroethyl)prop-anamide], in that order: 3 nM and 1800 nM.
For `CC(C)(C(=O)Nc1nccs1)C(c1ccccc1)c1ccc2[nH]c(-c3ccccn3)cc2c1` (single isomer, unassigned) [111-enant A, 2,2-Dimethyl-3-phenyl-3-(2-(pyridin-2-yl)-1H-indol-5-yl)-N-(thiazol-2-yl)propanamide], in that order: 73 nM and 1090 nM.
Turning to `CCc1nnc(NC(=O)C(C)(C)C(c2ccccc2)c2ccc3c(cnn3-c3ccc(F)cc3)c2)s1` (centres unmarked) [Example 20, N-(5-ethyl-1,3,4-thiadiazol-2-yl)-3-(1-(4-fluorophenyl)-1H-indazol-5-yl)-2,2-dimethyl-3-phenylpropanamide], in test [1], the Ki stood at 10 nM. In test [2], the EC50 was over 10000 nM.
For `CC(C)(C(=O)Nc1nccs1)C(c1ccccc1)c1ccc2c(cnn2CCO)c1` (centres unmarked) [Example 57, 3-(1-(2-hydrox-ethyl)-1H-indazol-5-yl)-2,2-dimethyl-3-phenyl-N-(thiazol-2-yl)propanamide], in that order: 20 nM and 205 nM.
For `CCOC(=O)Cc1csc(NC(=O)C(C)(C)C(c2ccccc2)c2ccc3c(cnn3-c3ccc(F)cc3)c2)n1` (centres unmarked) [Example 28, ethyl 2-(2-(3-(1-(4-fluorophenyl)-1H-indazol-5-yl)-2,2-dimethyl-3-phenylpropanamido)thiazol-4-yl)acetate] the same measures were 20 nM and 647 nM.
For `COCCCn1ncc2cc(C(c3ccccc3)C(C)(C)C(=O)Nc3nncs3)ccc21` (centres unmarked) [Example 71], in that order: 28 nM and over 10000 nM.
With `CN1CCC(n2ncc3cc(C(c4ccccc4)C(C)(C)C(=O)Nc4nccs4)ccc32)CC1` (centres unmarked) [Example 59, 2,2-dimethyl-3-(1-(1-methylpiper-idin-4-yl)-1H-indazol-5-yl)-3-phenyl-N-(thiazol-2-yl)propanamide], the inhibition constant (Ki) in test [1] was found to be 543 nM. Further, the EC50 in test [2] was over 10000 nM.
For `CC(C)(C(=O)Nc1sccc1C#N)C(c1ccccc1)c1ccc2c(cnn2-c2ccc(F)cc2)c1` (centres unmarked) [Example 19, N-(3-cyanothiophen-2-yl)-3-(1-(4-fluorophenyl)-1H-indazol-5-yl)-2,2-dimethyl-3-phenylpropanamide] the same measures were 47 nM and over 10000 nM.
For `CC(C)(C(=O)Nc1nccs1)C(c1ccccc1)c1cnc2c(cnn2-c2ccccc2)c1` (centres unmarked) [Example 162, 2,2-dimethyl-3-phenyl-3-(1-phenyl-1H-pyrazolo[3,4-b]pyridin-5-yl)-N-(thiazol-2-yl)propanamide], in that order: 3.6 nM and 3560 nM.
For `CC(C)(C(=O)Nc1nccs1)C(c1ccccc1)c1ccc2c(cnn2CS(C)(=O)=O)c1` (centres unmarked) [Example 60, 2,2-dimethyl-3-(1-(methylsulfonylmethyl)-1H-indazol-5-yl)-3-phenyl-N-(thiazol-2-yl)propanamide], in that order: 29 nM and over 10000 nM.
As for `CC(C)(C(=O)Nc1nccs1)C(c1ccccc1)c1ccc2[nH]cc(C#N)c2c1` (centres unmarked) [Example 108, 3-(3-Cyano-1H-indol-5-yl)-2,2-dimethyl-3-phenyl-N-(thiazol-2-yl)propanamide], the Ki in test [1] stood at 6.6 nM. For the same compound, the concentration giving a half-maximal response (EC50) in test [2] was 1200 nM.
Regarding `CC(C)(C(=O)Nc1nccs1)C(c1ccc2c(cnn2-c2ccc(F)cc2)c1)C1CCCC1` (centres unmarked) [Example 35, 3-Cyclopentyl-3-(1-(4-fluorophenyl)-1H-indazol-5-yl)-2,2-dimethyl-N-(thiazol-2-yl)propanamide], in test [1], the Ki was 21 nM. The EC50 in test [2] turned out to be 82 nM.
For `CC(C)(C(=O)Nc1nncs1)C(c1ccccc1)c1ccc2c(cnn2CCc2ccccc2)c1` (centres unmarked) [Example 74, 2,2-dimethyl-3-(1-phenethyl-1H-indazol-5-yl)-3-phenyl-N-(1,3,4-thiadiazol-2-yl)propanamide], in that order: 152 nM and over 10000 nM.
For the compound `COCCCn1cc2cc(C(c3ccccc3)C(C)(C)C(=O)Nc3nncs3)ccc2n1` (centres unmarked) [Example 69, 3-(2-(3-methoxy-propyl)-2H-indazol-5-yl)-2,2-dimethyl-3-phenyl-N-(1,3,4-thiadiazol-2-yl)propanamide], the Ki in test [1] turned out to be 84 nM. Besides, in test [2], the EC50 was over 10000 nM.
For `CC(C)(C(=O)Nc1nnn[nH]1)C(c1ccccc1)c1ccc2c(cnn2-c2ccc(F)cc2)c1` (centres unmarked) [Example 14, 3-(1-(4-fluorophenyl)-1H-indazol-5-yl)-2,2-dimethyl-3-phenyl-N-(1H-tetrazol-5-yl)propanamide], in that order: 17 nM and over 10000 nM.
For `CC(C)(C(=O)Nc1nncs1)C(c1ccccc1)c1ccc2c(cnn2-c2ccncc2)c1` (centres unmarked) [Example 82, 2,2-dimethyl-3-phenyl-3-(1-(pyridin-4-yl)-1H-indazol-5-yl)-N-(1,3,4-thiadiazol-2-yl)propanamide] the same measures were 20 nM and 491 nM.
Regarding `CC(C)(C(=O)Nc1nncs1)C(c1ccccc1)c1ccc2nn(CCCCO)cc2c1` (centres unmarked) [Example 77, 3-(2-(4-hydroxybutyl)-2H-indazol-5-yl)-2,2-dimethyl-3-phenyl-N-(1,3,4-thiadiazol-2-yl)propanamide], the Ki in test [1] was found to be 23 nM. Also, the EC50 in test [2] stood at 951 nM.
For `CC(C)(C(=O)Nc1nncs1)C(c1ccccc1)c1ccc2c(cnn2CCCCO)c1` (centres unmarked) [Example 76, 3-(1-(4-hydroxybutyl)-1H-indazol-5-yl)-2,2-dimethyl-3-phenyl-N-(1,3,4-thiadiazol-2-yl)propanamide], in that order: 9.3 nM and 267 nM.
For `CC(C)(C(=O)Nc1nncs1)C(c1ccccc1)c1ccc2c(cnn2-c2ccccn2)c1` (centres unmarked) [Example 80, 2,2-dimethyl-3-phenyl-3-(1-(pyridin-2-yl)-1H-indazol-5-yl)-N-(1,3,4-thiadiazol-2-yl)propanamide], in that order: 8.1 nM and 127 nM.

The values are drawn from US8067447B2, “Modulators of glucocorticoid receptor, AP-1, and/or NF-κB activity and use thereof” (Bristol-Myers Squibb Company, priority 2006, dated 2011).
